Where a name gives a salt, the structure may show the parent alone.
Each compound was assayed against T1, Serum Glucocorticoid-regulated Kinase-1 (SGK-1) (Homo sapiens, UniProt O00141, S422D) (assay: SGK-1 Enzyme Assay (SGK1e), substrate phosphorylation, scintillation proximity). Details: truncated human SGK-1 (aa 61-431, S422D), 10 μM ATP, Crosstide substrate.
T1 construct: a truncated form of the human enzyme that included amino acids 61-431; 6xHis (N); made in house
T1 sequence (O00141 61-431 S422D): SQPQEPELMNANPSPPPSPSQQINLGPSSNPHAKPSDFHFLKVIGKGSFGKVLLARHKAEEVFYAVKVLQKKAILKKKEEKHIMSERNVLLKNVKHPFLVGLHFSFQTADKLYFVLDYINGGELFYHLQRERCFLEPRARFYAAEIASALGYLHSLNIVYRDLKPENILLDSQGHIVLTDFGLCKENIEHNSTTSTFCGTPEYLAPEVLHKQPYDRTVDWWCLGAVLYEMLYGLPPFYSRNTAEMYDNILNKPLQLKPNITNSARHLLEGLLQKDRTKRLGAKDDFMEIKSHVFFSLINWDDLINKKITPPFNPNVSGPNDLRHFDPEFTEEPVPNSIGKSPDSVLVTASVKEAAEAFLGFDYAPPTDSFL
Assay type: biochemical
Method: SGK-1 Enzyme Assay (SGK1e):
Compounds of the present invention were tested for Serum Glucocorticoid-regulated Kinase-1 (SGK-1) protein serine/threonine kinase inhibitory activity in substrate phosphorylation assays using enzyme purified from a baculovirus expression vector system. The recombinant baculovirus was made to express the intracellular domain of SGK-1 (GenBank accession number AAD41091). The virus expressed a truncated form of the human enzyme that included amino acids 61-431. Serine 422 was replaced with Aspartic acid to activate the enzyme, and 6 Histidine residues were added at the amino terminus to facilitate purification. The protein was purified using Ni-NTA agarose affinity chromatography. The peptide substrate was an N-terminal biotinylated synthetic peptide named Crosstide (biotin-Ahx-GRPRTSSFAEG-OH), corresponding to the sequence in GSK3 surrounding the serine phosphorylated by MAPKAP Kinase-1/Rsk and p70 S6 Kinase.
The method measures the ability of the isolated enzyme to catalyze the transfer of the γ-phosphate from ATP onto serine/threonine residues in the biotinylated Crosstide. Reactions were performed in 96-well polystyrene round-bottom plates in a final volume of 30 μL. Reaction mixtures contained 62.5 mM HEPES (pH 7.4), 10 mM MgCl2, 0.1 mM EDTA, 0.0024% TWEEN-20, and 1 mM DTT (added fresh daily), 10 μM ATP, 0.2 μCi [[ν-^33P] ATP per reaction, 4 μM Crosstide peptide substrate, and 1 nM SGK1 enzyme. Reactions were initiated by adding the indicated enzyme. The reaction was allowed to proceed for 2 hours, then terminated by the addition of 50 mM EDTA and quantified using a scintillation proximity assay procedure as described (McDonald, O. B., Antonsson, B., Arkinstal, S., Marshall, C. J., and Wood, E. R. (1999) Analytical Biochemistry, 268, 318-329).
Compounds under analysis were dissolved in Me2SO to 1 mM and serially diluted 1 to 3 with Me2SO through eleven columns of a 96 well plate. 1 μL of each concentration was transferred to the corresponding well of the assay plate. This created a final compound concentration range from 0.56 nM to 33.3 μM.
The data for dose responses were plotted as % Control calculated with the data reduction formula 100*(U1−C2)/(C1−C2) versus concentration of compound and fitted to the curve described by: y=((Vmax*x)/(K+x)) where Vmax is the upper asymptote and K is the IC50.
In the case of `Cc1cccc2[nH]c(-c3cc(-c4ccc(F)cc4)cnc3N)nc12` [Example 17, 5-(4-fluorophenyl)-3-(4-methyl-1H-benzimidazol-2-yl)pyridin-2-amine], the IC50 is reported as < 1000 nM.
For `COC(=O)c1ccc2nc(-c3cc(-c4cccc(OC)c4)cnc3N)[nH]c2c1` [Example 7, Methyl 2-[2-amino-5-(3-methoxyphenyl)pyridin-3-yl]-1H-benzimidazole-6-carboxylate hydrochloride], the IC50 was < 1000 nM.
With `Nc1ncc(-c2ccc(F)cc2)cc1-c1nc2ccc(S(N)(=O)=O)cc2[nH]1` [Example 14, 2-[2-amino-5-(4-fluorophenyl)pyridin-3-yl]-1H-benzimidazole-6-sulfonamide] the IC50 was < 1000 nM.
With `Nc1ncc(-c2ccccc2)cc1-c1nc2ccc(S(N)(=O)=O)cc2[nH]1` [Example 4, 2-(2-amino-5-phenylpyridin-3-yl)-1H-benzimidazole-6-sulfonamide hydrochloride] the IC50 was < 1000 nM.
For `COc1cccc(-c2cnc(N)c(-c3nc4cc(Cl)c(F)cc4[nH]3)c2)c1` [Example 11, 3-(5-chloro-6-fluoro-1H-benzimidazol-2-yl)-5-(3-methoxyphenyl)pyridin-2-amine hydrochloride], the IC50 was < 1000 nM.
`Nc1ncc(-c2ccccc2)cc1-c1nc2ccccc2[nH]1` [Example 1, 3-(1H-benzimidazol-2-yl)-5-phenylpyridin-2-amine hydrochloride] was tested, and the IC50 was < 1000 nM.

Reference: patent US7329678B2, “Chemical compounds” (SmithKline Beecham Corporation, priority 2003, dated 2008)
